{"source": "PubChem BioAssay AID304", "about": "(DTP/NCI, 2004)", "test_system": "Lymphosarcoma Mecca ip in C3AKF1 mice, survival T/C%", "test": "NCI In Vivo Anticancer Drug Screen. Data for tumor model Lymphosarcoma Mecca (intraperitoneal) in C3AKF1 (CHKRF1) mice", "conditions": "endpoint: survival time, mean or median, higher = longer survival", "method": "The antitumor activity of compounds was measured in mice bearing transplantable tumors. Survival or tumor size were measured and the results are expressed as the measurement made in the treated group (T) divided by the measurement made in the vehicle treated control group (C). The tumor model used in this assay is Lymphosarcoma Mecca (intraperitoneal) in C3AKF1 (CHKRF1) mice", "key": {"[1]": {"conditions": "dose: 5.0 mg/kg/injection, schedule: Q01DX010 (ip), vehicle: saline"}, "[2]": {"conditions": "dose: 10.0 mg/kg/injection, schedule: Q01DX010 (ip), vehicle: saline"}, "[3]": {"conditions": "dose: 20.0 mg/kg/injection, schedule: Q01DX010 (ip), vehicle: saline"}, "[4]": {"conditions": "dose: 40.0 mg/kg/injection, schedule: Q01DX010 (ip), vehicle: saline"}, "[5]": {"conditions": "dose: 1.0 mg/kg/injection, schedule: Q01DX010 (ip), vehicle: saline"}, "[6]": {"conditions": "dose: 2.0 mg/kg/injection, schedule: Q01DX010 (ip), vehicle: saline"}, "[7]": {"conditions": "dose: 8.0 mg/kg/injection, schedule: Q01DX010 (ip), vehicle: saline"}, "[8]": {"conditions": "dose: 16.0 mg/kg/injection, schedule: Q01DX010 (ip), vehicle: saline"}, "[9]": {"conditions": "dose: 4.0 mg/kg/injection, schedule: Q01DX010 (ip), vehicle: saline"}}, "note": "Several values for one entry are separate records, joined by “and”; a condition that tells them apart may be missing. Equal entries are not always repeated. Inconclusive results and toxic doses are left out. Starred links: 1 amine or outer side, 2 acyl side, 3 side chain; linkers in the order of their positions; H or OH if unused. Positions of bridges follow the written chain, without caps; N, C: chain ends. Non-standard residues stand in square brackets, D forms with d. Residues, ends and D or L forms follow the SMILES beside them. Chains are numbered I, II in the order given. Actinocin(9to1) = Cc1c2oc3c(C)ccc(C(=O)[*:1])c3nc-2c(C(=O)[*:2])c(N)c1=O; aThr = C[C@H](O)[C@H](N)C(=O)O; NMeV = CN[C@H](C(=O)O)C(C)C; Sar = CNCC(=O)O", "data": [{"smiles": "Nc1nc(N)c2nc(CNc3ccc(C(=O)NC(CCC(=O)O)C(=O)O)cc3)cnc2n1", "note": "(stereo unspecified)", "values": [{"measurement": "T/C", "setting": "dose: 0.1 mg/kg/injection, schedule: Q01DX010 (ip), vehicle: other", "value": "162 % of control and 215 % of control"}, {"measurement": "T/C", "setting": "dose: 0.2 mg/kg/injection, schedule: Q01DX010 (ip), vehicle: other", "value": "155 % of control and 190 % of control"}]}, {"smiles": "CN(C)c1ccc(/C=C/c2ccnc3ccccc23)cc1", "values": [{"measurement": "T/C", "setting": "[1]", "value": "100 % of control and 111 % of control"}, {"measurement": "T/C", "setting": "[2]", "value": "94 % of control"}, {"measurement": "T/C", "setting": "[3]", "value": "94 % of control and 100 % of control"}, {"measurement": "T/C", "setting": "[4]", "value": "94 % of control"}]}, {"smiles": "CCn1cnc2c(=S)nc[nH]c21", "values": [{"measurement": "T/C", "setting": "dose: 15.6 mg/kg/injection, schedule: Q01DX010 (ip), vehicle: saline", "value": "100 % of control"}, {"measurement": "T/C", "setting": "dose: 31.3 mg/kg/injection, schedule: Q01DX010 (ip), vehicle: saline", "value": "100 % of control"}, {"measurement": "T/C", "setting": "dose: 62.5 mg/kg/injection, schedule: Q01DX010 (ip), vehicle: saline", "value": "90 % of control"}, {"measurement": "T/C", "setting": "dose: 125.0 mg/kg/injection, schedule: Q01DX010 (ip), vehicle: saline", "value": "100 % of control"}]}, {"smiles": "O=C(Nc1ccc(C2=NCCCN2)cc1)c1ccc(C(=O)Nc2ccc(C3=NCCCN3)cc2)cc1", "values": [{"measurement": "T/C", "setting": "[5]", "value": "111 % of control and 116 % of control"}, {"measurement": "T/C", "setting": "[6]", "value": "116 % of control and 122 % of control"}, {"measurement": "T/C", "setting": "[7]", "value": "150 % of control"}]}, {"smiles": "Cn1c(N)nc2nc[nH]c2c1=S", "values": [{"measurement": "T/C", "setting": "[2]", "value": "100 % of control and 105 % of control"}, {"measurement": "T/C", "setting": "[3]", "value": "100 % of control and 105 % of control"}, {"measurement": "T/C", "setting": "[4]", "value": "110 % of control"}, {"measurement": "T/C", "setting": "dose: 80.0 mg/kg/injection, schedule: Q01DX010 (ip), vehicle: saline", "value": "100 % of control"}]}, {"smiles": "CC1CN1P(=S)(N1CC1C)N1CC1C", "note": "(stereo unspecified)", "values": [{"measurement": "T/C", "setting": "dose: 1.25 mg/kg/injection, schedule: Q01DX010 (ip), vehicle: saline", "value": "100 % of control"}, {"measurement": "T/C", "setting": "dose: 2.5 mg/kg/injection, schedule: Q01DX010 (ip), vehicle: saline", "value": "100 % of control and 105 % of control"}, {"measurement": "T/C", "setting": "[1]", "value": "100 % of control"}, {"measurement": "T/C", "setting": "[2]", "value": "100 % of control and 105 % of control"}, {"measurement": "T/C", "setting": "[3]", "value": "100 % of control"}]}, {"smiles": "Nc1nc(SCc2ccccc2)c2[nH]cnc2n1", "values": [{"measurement": "T/C", "setting": "[7]", "value": "90 % of control"}, {"measurement": "T/C", "setting": "[8]", "value": "90 % of control"}]}, {"smiles": "Nc1nc(F)nc2c1ncn2C1OC(CO)C(O)C1O", "note": "(stereo unspecified)", "values": [{"measurement": "T/C", "setting": "dose: 0.5 mg/kg/injection, schedule: Q01DX010 (ip), vehicle: saline", "value": "100 % of control"}, {"measurement": "T/C", "setting": "[5]", "value": "90 % of control and 105 % of control"}, {"measurement": "T/C", "setting": "[6]", "value": "90 % of control and 100 % of control"}, {"measurement": "T/C", "setting": "[9]", "value": "100 % of control"}, {"measurement": "T/C", "setting": "[7]", "value": "100 % of control"}]}, {"smiles": "Cc1c2oc3c(C)ccc(C(=O)N[C@@H]4C(=O)N[C@H](C(C)C)C(=O)N5CCC[C@H]5C(=O)N(C)CC(=O)N(C)[C@@H](C(C)C)C(=O)O[C@H]4C)c3nc-2c(C(=O)N[C@@H]2C(=O)N[C@H](C(C)C)C(=O)N3CCC[C@H]3C(=O)N(C)CC(=O)N(C)[C@@H](C(C)C)C(=O)O[C@H]2C)c(N)c1=O", "note": "(I: [aThr][dV]P[Sar][NMeV] / II: [aThr][dV]P[Sar][NMeV]; ester I:1-I:C, II:1-II:C; linker I:N-II:N via Actinocin(9to1))", "values": [{"measurement": "T/C", "setting": "dose: 13.0 micrograms/kg/injection, schedule: Q01DX010 (ip), vehicle: acid diluted with saline", "value": "183 % of control"}, {"measurement": "T/C", "setting": "dose: 25.0 micrograms/kg/injection, schedule: Q01DX010 (ip), vehicle: acid diluted with saline", "value": "103 % of control"}, {"measurement": "T/C", "setting": "dose: 50.0 micrograms/kg/injection, schedule: Q01DX010 (ip), vehicle: acid diluted with saline", "value": "123 % of control"}]}, {"smiles": "CC(=O)O[C@]1(C(C)=O)CC[C@H]2[C@@H]3C[C@H](C)C4=CC(=O)C=C[C@]4(C)[C@@]3(F)[C@@H](O)C[C@@]21C", "values": [{"measurement": "T/C", "setting": "dose: 12.5 mg/kg/injection, schedule: Q01DX010 (sc), vehicle: steriod suspending solution", "value": "105 % of control"}, {"measurement": "T/C", "setting": "dose: 25.0 mg/kg/injection, schedule: Q01DX010 (sc), vehicle: steriod suspending solution", "value": "100 % of control"}, {"measurement": "T/C", "setting": "dose: 50.0 mg/kg/injection, schedule: Q01DX010 (sc), vehicle: steriod suspending solution", "value": "100 % of control"}, {"measurement": "T/C", "setting": "dose: 100.0 mg/kg/injection, schedule: Q01DX010 (sc), vehicle: steriod suspending solution", "value": "90 % of control"}]}, {"smiles": "Nc1nc(=O)n(C2CC(O)C(CO)O2)cc1Br", "note": "(stereo unspecified)", "values": [{"measurement": "T/C", "setting": "dose: 50.0 mg/kg/injection, schedule: Q01DX010 (ip), vehicle: saline", "value": "100 % of control"}, {"measurement": "T/C", "setting": "dose: 100.0 mg/kg/injection, schedule: Q01DX010 (ip), vehicle: saline", "value": "100 % of control and 105 % of control"}, {"measurement": "T/C", "setting": "dose: 200.0 mg/kg/injection, schedule: Q01DX010 (ip), vehicle: saline", "value": "100 % of control and 111 % of control"}, {"measurement": "T/C", "setting": "dose: 400.0 mg/kg/injection, schedule: Q01DX010 (ip), vehicle: saline", "value": "90 % of control and 94 % of control"}, {"measurement": "T/C", "setting": "dose: 800.0 mg/kg/injection, schedule: Q01DX010 (ip), vehicle: saline", "value": "88 % of control"}]}, {"smiles": "CN1CC[C@]23c4c5ccc(O)c4O[C@H]2C(=O)CC[C@H]3[C@H]1C5", "values": [{"measurement": "T/C", "setting": "[9]", "value": "88 % of control and 100 % of control"}, {"measurement": "T/C", "setting": "[7]", "value": "100 % of control and 111 % of control"}, {"measurement": "T/C", "setting": "[8]", "value": "105 % of control and 111 % of control"}, {"measurement": "T/C", "setting": "dose: 32.0 mg/kg/injection, schedule: Q01DX010 (ip), vehicle: saline", "value": "100 % of control and 116 % of control"}]}, {"smiles": "Nc1nc2n[nH]nc2c(=O)[nH]1", "values": [{"measurement": "T/C", "setting": "dose: 25.0 mg/kg/injection, schedule: Q01DX010 (ip), vehicle: alkali diluted with saline", "value": "115 % of control"}, {"measurement": "T/C", "setting": "dose: 50.0 mg/kg/injection, schedule: Q01DX010 (ip), vehicle: alkali diluted with saline", "value": "88 % of control and 110 % of control"}]}, {"smiles": "O[C@H](CN1CC1)[C@@H](O)CN1CC1", "values": [{"measurement": "T/C", "setting": "dose: 62.5 micrograms/kg/injection, schedule: Q01DX010 (ip), vehicle: saline", "value": "175 % of control"}, {"measurement": "T/C", "setting": "dose: 125.0 micrograms/kg/injection, schedule: Q01DX010 (ip), vehicle: saline", "value": "210 % of control and 235 % of control"}, {"measurement": "T/C", "setting": "dose: 250.0 micrograms/kg/injection, schedule: Q01DX010 (ip), vehicle: saline", "value": "235 % of control and 300 % of control"}, {"measurement": "T/C", "setting": "dose: 500.0 micrograms/kg/injection, schedule: Q01DX010 (ip), vehicle: saline", "value": "105 % of control"}]}]}
